Measured values taken from patent US4496572A, “Benzo-fused thromboxane synthetase inhibitors” (Pfizer Inc., priority 1981, dated 1985).

What was measured:
TxB2 production = assay: TxB2 generation in clotted whole blood after i.v. dosing (method of Patrono et al, RIA); format: in vivo, rabbits; details: Oryctolagus cuniculus, iv; for inhibition at 0.3 mg/kg: 0.3 mg/kg i.v.; for inhibition at 0.1 mg/kg: 0.1 mg/kg i.v.
Protocol: The method of Patrono et al is adapted to study the generation of TxB2 is whole blood samples removed from animals prior to and following drug treatment. Briefly, blood samples are taken into glass tubes and allowed to clot at 37° C. Serum is separated by centrifugation and the samples stored at -40° C. until assayed for TxB2, when appropriate dilutions of ethanol deproteinised samples are analysed by RIA. This technique is used in experiments with the test compounds to determine intravenous potency in anaesthetised rabbits:
Male New Zealand white rabbits (2.6-5.6 kg) are anaesthetised with sodium pentobarbitone (30 mg/kg i.v.) followed by urethane (500 mg/kg i.p.). After cannulation of the trachea, a carotid artery is catheterised for collection of blood samples. The catheter is kept patent by slow infusion (0.2 ml/minute) of sterile saline. Control carotid arterial blood samples are taken 30 and 5 minutes prior to administration of the test compound or vehicle (0.9% w/v NaCl, 0.2 ml/kg) via a marginal ear vein. Three groups of rabbits are used. The first group receive 0.03 mg/kg of the test compound followed, one hour later, by 0.1 mg/kg. Similarly, the second group receive 0.3 mg/kg, followed by 1 mg/kg. The third group receive vehicle, followed one hour later by a further vehicle injection. […] At each time point, a 1 ml blood sample is taken into a glass test tube, without anticoagulant, for TxB2 determination. For the latter, the blood sample is allowed to clot during a two hour incubation at 37° C. (which preliminary experiments had shown to give maximum TxB2 production) and the serum obtained by centrifugation. Serum samples are then processed through the TxB2 RIA after deproteinisation with ethanol and dilution with Isogel Tris buffer.

[1] = test system: human blood platelet aggregation; details: human blood platelets; cited from earlier work
aggregation of platelets = details: rats in vivo; cited from earlier work
[2] = rabbit, intravenous arachidonic acid; cited from earlier work
prostacyclin synthetase = details: pre-incubation of the enzyme with the inhibitor; cited from earlier work

Molecule: CSc1c(Cn2ccnc2)sc2ccc(C(=O)O)cc12
- inhibition at 0.3 mg/kg (TxB2 production; 2 min, 2 MIN post dose): 99%
- inhibition at 0.1 mg/kg (TxB2 production; 0.25 h, 15 MIN post dose): 93%
- inhibition at 0.3 mg/kg (TxB2 production; 0.25 h, 15 MIN post dose): 98%
- inhibition at 0.1 mg/kg (TxB2 production; 0.5 h, 30 MIN post dose): 95%
- inhibition at 0.3 mg/kg (TxB2 production; 0.75 h, 45 MIN post dose): 97%
- inhibition at 0.3 mg/kg (TxB2 production; 1.25 h, 75 MIN post dose): 95%

Molecule: Cc1c(Cc2cccnc2)ccc2ccc(C(=O)O)cc12
- inhibition at 0.3 mg/kg (TxB2 production; 2 min, 2 MIN post dose): 99%
- inhibition at 0.1 mg/kg (TxB2 production; 0.25 h, 15 MIN post dose): 95%
- inhibition at 0.3 mg/kg (TxB2 production; 0.25 h, 15 MIN post dose): 98%
- inhibition at 0.1 mg/kg (TxB2 production; 0.5 h, 30 MIN post dose): 92%
- inhibition at 0.3 mg/kg (TxB2 production; 0.75 h, 45 MIN post dose): 95%
- inhibition at 0.3 mg/kg (TxB2 production; 1.25 h, 75 MIN post dose): 97%

Molecule: O=C1C(CC[S+]([O-])c2ccccc2)C(=O)N(c2ccccc2)N1c1ccccc1 (centres unmarked) [sulphinpyrazone]
- inhibitory activity in vitro against a variety of aggregating agents [1]: show inhibitory activity
- prevention of platelet aggregation in extra corporeal loop of the abdominal aorta (aggregation of platelets): prevent the aggregation of platelets
- protection from the lethal effect of arachidonic acid injection [2]: protect the rabbit from the lethal effect

Molecule: O=C(O)c1ccc2oc(Cn3ccnc3)c(Br)c2c1
- inhibition at 0.3 mg/kg (TxB2 production; 2 min, 2 MIN post dose): 87%
- inhibition at 0.1 mg/kg (TxB2 production; 0.25 h, 15 MIN post dose): 52%
- inhibition at 0.3 mg/kg (TxB2 production; 0.25 h, 15 MIN post dose): 84%
- inhibition at 0.1 mg/kg (TxB2 production; 0.5 h, 30 MIN post dose): 33%
- inhibition at 0.3 mg/kg (TxB2 production; 0.75 h, 45 MIN post dose): 65%
- inhibition at 0.3 mg/kg (TxB2 production; 1.25 h, 75 MIN post dose): 41%

Molecule: O=C(O)c1ccc2sc(Cn3ccnc3)c(Cl)c2c1
- inhibition at 0.3 mg/kg (TxB2 production; 2 min, 2 MIN post dose): 99%
- inhibition at 0.1 mg/kg (TxB2 production; 0.25 h, 15 MIN post dose): 99%
- inhibition at 0.3 mg/kg (TxB2 production; 0.25 h, 15 MIN post dose): 100%
- inhibition at 0.1 mg/kg (TxB2 production; 0.5 h, 30 MIN post dose): 96%
- inhibition at 0.3 mg/kg (TxB2 production; 0.75 h, 45 MIN post dose): 100%
- inhibition at 0.3 mg/kg (TxB2 production; 1.25 h, 75 MIN post dose): 99%

Molecule: O=C(O)c1ccc2oc(Cn3ccnc3)c(Cl)c2c1
- inhibition at 0.3 mg/kg (TxB2 production; 2 min, 2 MIN post dose): 98%
- inhibition at 0.1 mg/kg (TxB2 production; 0.25 h, 15 MIN post dose): 88%
- inhibition at 0.3 mg/kg (TxB2 production; 0.25 h, 15 MIN post dose): 97%
- inhibition at 0.1 mg/kg (TxB2 production; 0.5 h, 30 MIN post dose): 82%
- inhibition at 0.3 mg/kg (TxB2 production; 0.75 h, 45 MIN post dose): 93%
- inhibition at 0.3 mg/kg (TxB2 production; 1.25 h, 75 MIN post dose): 86%

Molecule: CC(=O)Oc1ccccc1C(=O)O [aspirin]
- inhibitory activity in vitro against a variety of aggregating agents [1]: show inhibitory activity
- protection from the lethal effect of arachidonic acid injection [2]: protect the rabbit from the lethal effect

Molecule: Cc1c(Cc2cccnc2)sc2ccc(C(=O)O)cc12
- inhibition at 0.3 mg/kg (TxB2 production; 2 min, 2 MIN post dose): 98%
- inhibition at 0.1 mg/kg (TxB2 production; 0.25 h, 15 MIN post dose): 96%
- inhibition at 0.3 mg/kg (TxB2 production; 0.25 h, 15 MIN post dose): 99%
- inhibition at 0.1 mg/kg (TxB2 production; 0.5 h, 30 MIN post dose): 85%
- inhibition at 0.3 mg/kg (TxB2 production; 0.75 h, 45 MIN post dose): 97%
- inhibition at 0.3 mg/kg (TxB2 production; 1.25 h, 75 MIN post dose): 83%

Molecule: Cc1c(Cn2ccnc2)sc2ccc(C(=O)O)cc12
- inhibition at 0.1 mg/kg (TxB2 production; 2 min, 2 MIN post dose): 100%
- inhibition at 0.1 mg/kg (TxB2 production; 0.25 h, 15 MIN post dose): 98%
- inhibition at 0.3 mg/kg (TxB2 production; 0.25 h, 15 MIN post dose): 94%
- inhibition at 0.3 mg/kg (TxB2 production; 0.5 h, 30 MIN post dose): 95%
- inhibition at 0.1 mg/kg (TxB2 production; 0.75 h, 45 MIN post dose): 100%
- inhibition at 0.1 mg/kg (TxB2 production; 1.25 h, 75 MIN post dose): 98%

Molecule: O=C(O)c1ccc2sc(Cn3ccnc3)cc2c1
- inhibition at 0.3 mg/kg (TxB2 production; 0.25 h, 15 MIN post dose): 96%
- inhibition at 0.3 mg/kg (TxB2 production; 0.5 h, 30 MIN post dose): 89%

Molecule: Cc1c(Cn2ccnc2)sc2cc(C(=O)O)ccc12
- inhibition at 0.3 mg/kg (TxB2 production; 2 min, 2 MIN post dose): 100%
- inhibition at 0.1 mg/kg (TxB2 production; 0.25 h, 15 MIN post dose): 100%
- inhibition at 0.3 mg/kg (TxB2 production; 0.25 h, 15 MIN post dose): 100%
- inhibition at 0.1 mg/kg (TxB2 production; 0.5 h, 30 MIN post dose): 100%
- inhibition at 0.3 mg/kg (TxB2 production; 0.75 h, 45 MIN post dose): 100%
- inhibition at 0.3 mg/kg (TxB2 production; 1.25 h, 75 MIN post dose): 100%

Molecule: Cc1c(Cc2cccnc2)sc2cc(C(=O)O)ccc12
- inhibition at 0.3 mg/kg (TxB2 production; 2 min, 2 MIN post dose): 90%
- inhibition at 0.1 mg/kg (TxB2 production; 0.25 h, 15 MIN post dose): 76%
- inhibition at 0.3 mg/kg (TxB2 production; 0.25 h, 15 MIN post dose): 91%
- inhibition at 0.1 mg/kg (TxB2 production; 0.5 h, 30 MIN post dose): 46%
- inhibition at 0.3 mg/kg (TxB2 production; 0.75 h, 45 MIN post dose): 71%
- inhibition at 0.3 mg/kg (TxB2 production; 1.25 h, 75 MIN post dose): 52%

Molecule: 15-hydroperoxyarachidonic acid
- inhibition of PGI2 production (prostacyclin synthetase): completely inhibited

Molecule: Cc1c(Cn2ccnc2)n(C)c2ccc(C(=O)O)cc12
- inhibition at 0.3 mg/kg (TxB2 production; 2 min, 2 MIN post dose): 99%
- inhibition at 0.1 mg/kg (TxB2 production; 0.25 h, 15 MIN post dose): 85%
- inhibition at 0.3 mg/kg (TxB2 production; 0.25 h, 15 MIN post dose): 95%
- inhibition at 0.1 mg/kg (TxB2 production; 0.5 h, 30 MIN post dose): 84%
- inhibition at 0.3 mg/kg (TxB2 production; 0.75 h, 45 MIN post dose): 93%
- inhibition at 0.3 mg/kg (TxB2 production; 1.25 h, 75 MIN post dose): 81%

Molecule: Cc1c(Sc2cccnc2)sc2ccc(C(=O)O)cc12
- inhibition at 0.3 mg/kg (TxB2 production; 2 min, 2 MIN post dose): 98%
- inhibition at 0.1 mg/kg (TxB2 production; 0.25 h, 15 MIN post dose): 29%
- inhibition at 0.3 mg/kg (TxB2 production; 0.25 h, 15 MIN post dose): 81%
- inhibition at 0.1 mg/kg (TxB2 production; 0.5 h, 30 MIN post dose): 22%
- inhibition at 0.3 mg/kg (TxB2 production; 0.75 h, 45 MIN post dose): 36%
- inhibition at 0.3 mg/kg (TxB2 production; 1.25 h, 75 MIN post dose): 33%

Molecule: Cc1c(Cn2ccnc2)oc2ccc(C(=O)O)cc12
- inhibition at 0.3 mg/kg (TxB2 production; 2 min, 2 MIN post dose): 92%
- inhibition at 0.1 mg/kg (TxB2 production; 0.25 h, 15 MIN post dose): 47%
- inhibition at 0.3 mg/kg (TxB2 production; 0.25 h, 15 MIN post dose): 83%
- inhibition at 0.1 mg/kg (TxB2 production; 0.5 h, 30 MIN post dose): 37%
- inhibition at 0.3 mg/kg (TxB2 production; 0.75 h, 45 MIN post dose): 65%
- inhibition at 0.3 mg/kg (TxB2 production; 1.25 h, 75 MIN post dose): 51%
